# Literature values, collected in patent US6620446B2, “Antibacterial composition for control of gram positive bacteria in food applications” (Rhodia, Inc., priority 2000, dated 2003).
# System: L. monocytogenes
# Conditions: reported by M. Doyle, Food Technology 1988
substance,measurement,value
nisin,"initial inhibition of the organism's growth, duration",about 12 hours
